Test results: paper PMC9019169, “Direct Regulation of Hyperpolarization-Activated Cyclic-Nucleotide Gated (HCN1) Channels by Cannabinoids” (Frontiers in Molecular Neuroscience, 2022)

Experiments:
mouse HCN1 (mHCN1) [1] = molecular target: T1, mouse HCN1 (mHCN1) (Mus musculus, UniProt O88704); assay: two-electrode voltage clamp, Xenopus oocytes, Hill fit of current; type: cell-based; details: read-out: relative IC50
T1 construct: full-length wild-type cDNA in pGH19, cRNA expressed in Xenopus laevis oocytes; homotetrameric channel

mouse HCN1 (mHCN1) [2] = molecular target: T1, mouse HCN1 (mHCN1); assay: as above; type: cell-based

T1 sequence (O88704 whole entry): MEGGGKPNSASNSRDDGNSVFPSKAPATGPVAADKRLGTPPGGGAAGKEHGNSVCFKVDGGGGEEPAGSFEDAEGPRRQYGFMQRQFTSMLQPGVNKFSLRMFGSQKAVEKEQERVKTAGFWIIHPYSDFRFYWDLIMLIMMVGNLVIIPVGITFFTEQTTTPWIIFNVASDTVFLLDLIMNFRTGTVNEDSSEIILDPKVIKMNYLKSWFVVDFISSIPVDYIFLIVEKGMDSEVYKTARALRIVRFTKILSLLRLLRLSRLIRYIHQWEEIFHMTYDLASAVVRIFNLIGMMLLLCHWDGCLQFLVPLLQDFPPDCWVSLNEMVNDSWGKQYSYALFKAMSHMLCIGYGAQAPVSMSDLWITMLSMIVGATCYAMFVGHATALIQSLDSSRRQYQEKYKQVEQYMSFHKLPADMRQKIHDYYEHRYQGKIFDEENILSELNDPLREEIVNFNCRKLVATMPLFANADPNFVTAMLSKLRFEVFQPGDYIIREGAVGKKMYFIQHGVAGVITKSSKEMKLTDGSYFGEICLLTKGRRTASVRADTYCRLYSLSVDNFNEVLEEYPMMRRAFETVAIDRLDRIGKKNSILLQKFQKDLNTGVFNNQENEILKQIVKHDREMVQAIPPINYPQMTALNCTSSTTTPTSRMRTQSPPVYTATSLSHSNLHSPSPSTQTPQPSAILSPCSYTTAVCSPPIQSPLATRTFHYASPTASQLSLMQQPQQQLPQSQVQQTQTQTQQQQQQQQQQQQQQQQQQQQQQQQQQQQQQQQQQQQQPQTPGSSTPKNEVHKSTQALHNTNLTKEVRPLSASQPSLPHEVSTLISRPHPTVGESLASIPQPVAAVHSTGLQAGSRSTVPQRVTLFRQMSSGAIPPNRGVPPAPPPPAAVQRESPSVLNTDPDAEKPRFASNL

SMILES | IC50 (mouse HCN1 (mHCN1) [1]) [µM] | EC50 (mouse HCN1 (mHCN1) [2]) [µM]
CCCCCc1cc(O)c2c(c1)OC(C)(C)[C@@H]1CCC(C)=C[C@@H]21 [Δ9-tetrahydrocannabinol] | 21.8 | 
C=C(C)[C@@H]1CCC(C)=C[C@H]1c1c(O)cc(CCCCC)cc1O [cannabidiol] |  | 28.5
